# According to US9708311B2, “Benzimidazole derivatives as EP4 antagonists” (BAYER PHARMA AKTIENGESELLSCHAFT, priority 2012, dated 2017):
# Read-outs that look alike come from different tables or passages of the source.
# Key:
# endometrial lesions = assay: Syngeneic mouse endometriosis model (preventive); type: in vivo; details: 28 days
# Description: The syngeneic induction of endometriosis in mice is a common animal model for testing the efficacy of substances for the treatment of endometriosis. Endometriosis is induced experimentally by transplantation of murine uterus fragments of a donor mouse of the same strain into the abdominal cavity of the recipient mouse. Female mice of the balb/c strain were used. The cycle of the mouse is determined by means of a vaginal smear. Donor animals which are in oestrus are used exclusively. The donor animals are sacrificed and the uterine horns are removed and subsequently cut open longitudinally. From the uteri, using a punch 2 mm bioptates are punched out, which are subsequently sewn into the recipient animal. The recipient animals are anaesthetised and subjected to a laparotomy. During the intervention, 6 uterus punchings of a donor mouse are sewn onto the parietal peritoneum of the recipient mouse. […] After 28 days, the animals are opened up in a final laparotomy and the lesion sizes are determined. The grown lesions are photographically recorded and the area is measured by means of AxioVision Software. […] In the s.c. approach (FIG. 1), the substance according to the invention (Example 4) was tested in 4 different dose schemes and the lesion size was assessed in comparison to the animals treated with vehicle. […]
# human EP4 receptor = human EP4 receptor (Homo sapiens (Human), UniProt P35408); assay: Test for antagonism of the human EP4 receptor signal (cAMP HTRF); type: cell-based
# human EP4 receptor, sequence (P35408 whole entry): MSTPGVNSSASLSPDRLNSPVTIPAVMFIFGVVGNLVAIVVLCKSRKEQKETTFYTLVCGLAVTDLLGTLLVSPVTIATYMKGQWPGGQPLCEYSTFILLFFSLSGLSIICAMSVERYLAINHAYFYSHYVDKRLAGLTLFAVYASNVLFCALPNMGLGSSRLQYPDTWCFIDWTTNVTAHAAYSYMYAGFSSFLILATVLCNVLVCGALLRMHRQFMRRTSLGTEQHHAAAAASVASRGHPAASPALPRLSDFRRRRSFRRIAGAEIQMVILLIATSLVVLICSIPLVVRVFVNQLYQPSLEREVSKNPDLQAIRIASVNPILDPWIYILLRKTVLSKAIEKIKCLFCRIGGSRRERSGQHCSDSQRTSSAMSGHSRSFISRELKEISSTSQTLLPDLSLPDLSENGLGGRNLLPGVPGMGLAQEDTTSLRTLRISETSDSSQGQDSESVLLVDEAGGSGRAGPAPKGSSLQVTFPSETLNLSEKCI
# Summary of the method: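 Antagonism of PGE2-stimulated cAMP formation in hEP4-R cells with IBMX present. After lysis, cAMP measured by competitive TR-FRET (Eu cryptate anti-cAMP antibody vs cAMP-d2), 20 min at room temperature. Read-out is the 665/620 nm emission ratio; antagonism appears as restored FRET signal.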
# [1] = system: macrophages in the peritoneal fluid; assay: Flow cytometry of peritoneal lavage cells (macrophage activation); type: in vivo; details: mouse endometriosis model, p.o., vs vehicle control, p<0.001
# Description: For the obtainment of the cells from the peritoneum, 3 ml of cold PBS (phosphate buffered saline) were injected into the peritoneum of the dead animal and removed again after gentle massage of the abdomen. The cells from this peritoneal lavage were spun down at 1400 rpm for 2 min and taken up again in 500 μl of PBS containing 2% FCS (fetal calf serum). 100 μl of this cell suspension were used for each stain with different antibody-fluorochrome conjugate mixes. The cells were spun down for this purpose in 96 hole plates again and resuspended in 50 μl of an antibody solution in the 1:300 diluted anti CD11b-Pacific Blue (eBioscience), 1:200 diluted anti F4/80-PE (eBioscience), 1:200 diluted anti Gr1-APC-Cy7 (BD Pharmigen), 1:400 diluted anti CD11c-PE-Cy7 (BD Pharmigen) and 1:400 diluted anti MHCII-FITC (BD Pharmigen) and stored on ice in the dark for 20 min. Subsequently, 150 μl of PBS containing 2% FCS were added and the cells were once again centrifuged down at 1400 rpm for 2 min. The 200 μl of supernatant were discarded and the cells were washed with 200 μl of PBS containing 2% FCS and once again centrifuged off.
# Subsequently, they were taken up in 200 μl of PBS containing 2% FCS and 1:5000 diluted 5 mg/ml DAPI (Sigma) and the fluorescence intensity of the individual fluorochromes per cell was measured with a FACS Canto II flow cytometer. […]
compound,measurement,setting,value
"CCn1c2ccccc2c2cc(-c3nc4cc(C(=O)O)ccc4n3CCOC)ccc21 [Example 4, 2-(9-Ethyl-9H-carbazol-3-yl)-1-(2-methoxyethyl)-1H-benzimidazole-5-carboxylic acid]","reduction of the endometrial lesions, oral administration","endometrial lesions; p.o., vs control, p<0.01",significant reduction of the endometrial lesions
same,"reduction of the endometrial lesions, subcutaneous administration","endometrial lesions; s.c., 0.4, 3, 10 and 50 mg/kg/day, vs vehicle",significant reduction of the endometrial lesions
same,IC50,"human EP4 receptor; antagonism test Example 3.2.1, read-out: IC50 value at the EP4 receptor (antagonism test)",~6 nM
same,IC50,"human EP4 receptor; cells expressing hEP4, PGE2 at EC80 (0.4 nM), cAMP TR-FRET, read-out: Antagonism hEP4 IC50",5.59 nM
same,number of activated macrophages in the peritoneal fluid (FACS),[1],highly significant reduced number of activated macrophages
